# Like-named read-outs stand apart in the source and are kept apart here.
# Experiments:
# [1] = target: HA-GST-Rheb (GTP-γ-S loaded) activating mTORC1 (Homo sapiens (Human), UniProt Q15382); test: Rheb-dependent in vitro kinase assay (Rheb-IVK; LanthaScreen or Western readout); type: biochemical
# Rheb = Rheb (Homo sapiens (Human), UniProt Q15382); test: Affinity Selection Mass Spectrometry (ASMS); type: binding; conditions: affinity (R3/R0) in Affinity Selection Mass Spectrometry assay
# Protocol: Method 2 (Affinity Selection Mass Spectrometry
# Protein: Rheb (19 KDa) in the following buffer: 20 mM Tris, pH 8.0, 200 mM NaCl, 2 mM DTT, 5 mM MgCl2 was prepared as under.
# Human Rheb protein (I-169) was purified from BL21 (DE3) E. coli using a His-Smt-Rheb expression vector. The cell paste was lysed in lysis buffer (50 mM HEPES pH 7.5, 0.5 M NaCl, 5% Glycerol, 1% CHAPS, EDTA free protease inhibitor tablets, lysozyme to 1 mg/mL, benzonase 250U), sonicated, and purified on a HiTrap Ni Chelating Column (GE Healthcare) using the following buffer: 50 mM HEPES pH 7.5, 0.5 M NaCl, 5% Glycerol, and imidazole increasing in concentration from 5 mM to 500 mM. The His-Smt tag was cleaved using a U1p1 enzyme and dialyzed into 50 mM HEPES pH 7.5, 0.5 M NaCl, 5% Glycerol. The resultant protein was again purified on a Ni Chelating column to remove the U1p1 enzyme and His-Smt tag and then purified by size exclusion chromatography on a Sephacryl S-100 26/60 column into the following final buffer: 20 mM NaPhos pH 7.0, 100 mM NaCl, 5 mM MgCl2, 2 mM TCEP.
# Concentrations: 60 μM Rheb, 180 μM GDP and 2 μM of each compound,
# Ultrafiltration Filter (Sartorius, Germany) MW cutoff: 10 KDa
# • (a) Sample preparation: Prepare sample for each group in 1.5 mL microcentrifuge tube according to the experimental design, total volume 550 μL. In a standard ASMS experiment there are two groups: Protein plus (P+L+) and protein minus (P−L+). • (b) Transfer 50 μL from the 550 μL to a vial as R0 sample. Incubate the rest solution for 30 min at room temperature. Then transfer the 500 μL into an ultrafiltration filter tube and centrifuge at 12×10^3 rpm for ˜10 min, leave about 50 μL solution (otherwise adjust this time). • (c) Add incubation buffer to the ultrafiltration filter tube to about 500 μL. Stir gently and centrifuge mixtures as above, leave about 50 μL solution. • (d) Repeat the step c. Transfer the remaining 50 μL upper layer solution to a new vial as R^3 sample. Sample Extraction: Add 150 μL MeCN to denature the protein completely. Centrifuge at 12×10^3 rpm for 5 min. Transfer the supernatant into LC-MS auto sampler vials for LC-MS analysis (5 uL injection).
# Waters Acquity UPLC system, Waters ACQUITY UPLC BEH C18 column (2.1×50 mm, 1.7 μM); Mobile phase A: 0.1% formic acid solution, B: MeCN; 0.3 mL/min, 5 μL injection, gradient elution (Table 5).
# Waters Synapt G1 Q-TOF system, positive or negative ion scan modes; Capillary voltage: 3.0 kV; Method: MSE; Mass range: m/z=100-1000; Source temperature: 120° C.; Desolvation temperature: 400° C.; Collision voltage: 35 V; Sampling Cone: 35 V; Extraction Cone: 4.0 V; Cone Gas: 50 L/h; Desolvation Gas: 800 L/h.
# [2] = Rheb-dependent in vitro kinase assay, read-out: IVK IC50
# Sequence of Rheb (Q15382 1-169 limits assumed): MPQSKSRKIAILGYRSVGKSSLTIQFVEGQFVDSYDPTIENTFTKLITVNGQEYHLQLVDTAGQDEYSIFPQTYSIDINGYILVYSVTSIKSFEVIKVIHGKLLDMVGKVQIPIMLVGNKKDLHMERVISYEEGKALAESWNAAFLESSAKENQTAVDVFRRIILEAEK
# Sequence of HA-GST-Rheb (GTP-γ-S loaded) activating mTORC1 (Q15382 1-181): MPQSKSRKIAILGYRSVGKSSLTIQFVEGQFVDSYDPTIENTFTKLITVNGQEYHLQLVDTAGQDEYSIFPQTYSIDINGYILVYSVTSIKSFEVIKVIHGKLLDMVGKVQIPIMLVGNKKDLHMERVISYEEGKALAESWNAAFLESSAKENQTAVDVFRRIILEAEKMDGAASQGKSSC
SMILES,"IC50 [1, 2]",ASMS (R3/R0) (Rheb),"IC50 ([1]; LanthaScreen variation, Terbium labeled T46p4E-BP1 specific antibody, read-out: IC50 in the Rheb-IVK)","inhibition of mTORC1 activity in the Rheb-IVK ([1]; Western blot variation, anti 4E-BP1 and anti T37/46p4E-BP1)"
"O=C(O)c1cc2c(Sc3ccc(Cl)cc3Cl)cc(Cl)cc2n1Cc1ccc(-c2ccncc2)cc1 [I-70, 6-chloro-4-(2,4-dichlorophenylthio)-1-(4-(pyridin-4-yl)benzyl)-1H-indole-2-carboxylic acid]",< 10 µM,A (an affinity (R3/R0)>100%),–,–
"O=C(O)c1cc2c(Oc3cccc4cnccc34)cc(Cl)cc2[nH]1 [I-41, 6-chloro-4-(isoquinolin-5-yloxy)-1H-indole-2-carboxylic acid]",100 to 300 µM,C (an affinity (R3/R0)<20%),–,–
"Clc1cccc(Oc2cccc3[nH]ccc23)c1Cl [I-254, 4-(2,3-Dichlorophenoxy)-1H-indole]",10 to 100 µM,B (an affinity (R3/R0) between 100% and 20%),–,–
"OCc1cc2c(Oc3cccc(Cl)c3)cccc2[nH]1 [I-275, (4-(3-chlorophenoxy)-1H-indol-2-yl)methanol]",100 to 300 µM,C (an affinity (R3/R0)<20%),–,–
CC(C)(C)OC(=O)c1ccc(Cn2c(CO)cc3c(Br)cc(Oc4ccccc4)cc32)cc1 [I-151],> 100 µM,C (an affinity (R3/R0)<20%),–,–
"OCc1nc2c(Sc3ccc(Cl)cc3Cl)c(Cl)c(Cl)cc2[nH]1 [I-371, (5,6-dichloro-4-(2,4-dichlorophenylthio)-1H-benzo[d]imidazol-2-yl)methanol]",10 to 100 µM,B (an affinity (R3/R0) between 100% and 20%),–,–
"OCc1cc2c(Oc3ccccc3)c(Cl)ccc2[nH]1 [I-293, (5-chloro-4-phenoxy-1H-indol-2-yl)methanol]",100 to 300 µM,C (an affinity (R3/R0)<20%),~83.8 µM,capable of inhibiting mTORC1 activity
"CN(C)C(=O)c1ccc(Cn2c(C(=O)O)cc3c(SCCc4ccc(Cl)c(Cl)c4)cc(SCCc4ccc(Cl)c(Cl)c4)cc32)cc1 [I-16, 4,6-bis(3,4-dichlorophenethylthio)-1-(4-(dimethylcarbamoyl)benzyl)-1H-indole-2-carboxylic acid]",< 10 µM,B (an affinity (R3/R0) between 100% and 20%),–,–
CN1CCC(CCNC(=O)c2ccc(-c3nc4cc(Cl)c(Cl)cc4[nH]3)cc2)CC1 [I-362],> 100 µM,A (an affinity (R3/R0)>100%),–,–
"CN1CCN(C(=O)Cc2nc3cc(Cl)c(OCc4ccc(Cl)cc4)cc3[nH]2)CC1 [I-332, 2-[5-chloro-6-[(4-chlorophenyl)methoxy]-1H-benzimidazol-2-yl]-1-(4-methylpiperazin-1-yl)ethanone]",10 to 100 µM,A (an affinity (R3/R0)>100%),–,–
"OCc1cc2c(Br)cc(Sc3ccc(Cl)c(Cl)c3)cc2[nH]1 [I-133, (4-bromo-6-(3,4-dichlorophenylthio)-1H-indol-2-yl)methanol]",< 10 µM,B (an affinity (R3/R0) between 100% and 20%),–,–
Nc1ccc(-c2nc3cc(Cl)c(Cl)cc3[nH]2)cc1 [I-360],> 100 µM,B (an affinity (R3/R0) between 100% and 20%),–,–
"CN(C)C(=O)c1cccc(Cn2c(C(=O)O)cc3c(Br)cc(Oc4ccccc4)cc32)c1 [I-40, 4-bromo-1-(3-(dimethylcarbamoyl)benzyl)-6-phenoxy-1H-indole-2-carboxylic acid]",10 to 100 µM,C (an affinity (R3/R0)<20%),–,–
CN(C)C(=O)c1ccc(Cn2c(C(=O)O)cc3c(Br)cc(SCc4ccc(Cl)c(Cl)c4)cc32)cc1 [I-18],> 100 µM,B (an affinity (R3/R0) between 100% and 20%),–,–
"OCc1nc2c(OCC3CCCCC3O)cc(Cl)cc2[nH]1 (stereo not shown) [I-390, 2-((6-chloro-2-(hydroxymethyl)-1H-benzo[d]imidazol-4-yloxy)methyl)cyclohexanol]",100 to 300 µM,C (an affinity (R3/R0)<20%),–,–
"OCc1cc2c(Oc3ccccc3Cl)cc(Cl)cc2[nH]1 [I-216, (6-chloro-4-(2-chlorophenoxy)-1H-indol-2-yl)methanol]",10 to 100 µM,B (an affinity (R3/R0) between 100% and 20%),–,–
